Results taken from patent US9156827B2, “Anticancer agent” (THE UNIVERSITY OF TOKYO, priority 2010, dated 2015).
Where a name gives a salt, the structure may show the parent alone.

Biological target: pim-1 kinase (Homo sapiens, UniProt P11309)
Assay: Measurement of pim-1 kinase inhibitory activity (fluorescent substrate peptide, capillary electrophoresis)
Format: biochemical
Settings: 0.1 μM of each compound, 30 μM ATP, 1.5 μM substrate peptide, room temperature 2 hours
Procedure: Measurement of Pim-1 Kinase Inhibitory Activity
The result of the reaction was determined by quantifying the substrate and the phosphorylated reaction product separated by capillary electrophoresis based on difference in charges of the substances (EZ Reader II, Caliper Life Sciences, was used).

pim-1 kinase, sequence (P11309 whole entry): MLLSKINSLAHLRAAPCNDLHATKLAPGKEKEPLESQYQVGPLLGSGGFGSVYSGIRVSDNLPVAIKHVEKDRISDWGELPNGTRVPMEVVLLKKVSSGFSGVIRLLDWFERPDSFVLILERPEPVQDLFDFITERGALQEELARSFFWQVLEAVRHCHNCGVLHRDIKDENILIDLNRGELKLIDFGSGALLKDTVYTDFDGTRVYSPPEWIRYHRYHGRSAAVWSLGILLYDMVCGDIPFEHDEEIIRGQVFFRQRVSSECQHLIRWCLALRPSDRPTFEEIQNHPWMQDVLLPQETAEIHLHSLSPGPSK

Row | inhibition at 0.1 µM (Table 1) [%] | Structure (SMILES) | also measured
1 | 51 | CN(C)CCCN1CCN(Cc2c(O)ccc3c2O/C(=C\c2c[nH]c4ccccc24)C3=O)CC1 [Compound A1, (Z)-2-[(1H-Indol-3-yl)methylene]-7-({4-[3-(dimethylamino)propyl]piperazin-1-yl}methyl)-6-hydroxybenzofuran-3(2H)-one] | –
2 | 19 | O=C1/C(=C/c2c[nH]c3ccccc23)Oc2c1ccc(O)c2CN1CCSCC1 [Compound A4, (Z)-2-[(1H-Indol-3-yl)methylene]-6-hydroxy-7-(thiomorpholinomethyl)benzofuran-3(2H)-one] | –
3 | 15 | O=C1/C(=C/c2c[nH]c3ccccc23)Oc2c1ccc(O)c2CN1CCC(O)CC1 [Compound A6, (Z)-2-[(1H-Indol-3-yl)methylene]-6-hydroxy-7-[(4-hydroxypiperidin-1-yl)methyl]benzofuran-3(2H)-one] | –
4 | 20 | CN(C)CCCN(C)Cc1c(O)ccc2c1O/C(=C\c1c[nH]c3ccccc13)C2=O [Compound A8, (Z)-2-[(1H-Indol-3-yl)methylene]-7-({[3-(dimethylamino)propyl](methyl)amino}methyl)-6-hydroxybenzofuran-3(2H)-one] | –
5 | 71 | O=C1/C(=C/c2c[nH]c3ccccc23)Oc2c1cc(-c1ccccc1)c(O)c2CN1CCNCC1 [Compound A13, (Z)-2-[(1H-Indol-3-yl)methylene]-6-hydroxy-5-phenyl-7-(piperazin-1-ylmethyl)benzofuran-3(2H)-one dihydrochloride] | –
6 | 87 | COc1cc(CN2CCNCC2)c2c(c1)C(=O)/C(=C/c1c[nH]c3ccccc13)O2 [Compound A14, (Z)-2-[(1H-Indol-3-yl)methylene]-5-methoxy-7-(piperazin-1-ylmethyl)benzofuran-3(2H)-one dihydrochloride] | –
7 | 62 | O=C1/C(=C/c2c[nH]c3ccc(OCCN4CCOCC4)cc23)Oc2c1ccc(O)c2CN1CCNCC1 [Compound A19, (Z)-6-Hydroxy-2-{[5-(2-morpholinoethoxy)-1H-indol-3-yl]methylene}-7-(piperazin-1-ylmethyl)benzofuran-3(2H)-one dihydrochloride trihydrochloride] | –
8 | 62 | CC(=O)NCc1ccc2[nH]cc(/C=C3\Oc4c(ccc(O)c4CN4CCNCC4)C3=O)c2c1 [Compound A20, (Z)—N-[(3-{[6-Hydroxy-3-oxo-7-(piperazin-1-ylmethyl)benzofuran-2(3H)-ylidene]methyl}-1H-indol-5-yl)methyl]acetamide dihydrochloride] | –
9 | 94 | O=C1/C(=C/c2c[nH]c3ccc(Cl)cc23)Oc2c1ccc(O)c2CN1CCNCC1 [Compound A21, (Z)-2-[(5-Chloro-1H-indol-3-yl)methylene]-6-hydroxy-7-(piperazin-1-ylmethyl)benzofuran-3(2H)-one dihydrochloride] | –
10 | 56 | COC(=O)c1ccc2c(/C=C3\Oc4c(ccc(O)c4CN4CCNCC4)C3=O)c[nH]c2c1 [Compound A23, Methyl (Z)-3-{[6-hydroxy-3-oxo-7-(piperazin-1-ylmethyl)benzofuran-2(3H)-ylidene]methyl}-1H-indole-6-carboxylate] | –
11 | 60 | O=C1/C(=C/c2c[nH]c3cc([N+](=O)[O-])ccc23)Oc2c1ccc(O)c2CN1CCNCC1 [Compound A24, (Z)-6-Hydroxy-2-[(6-nitro-1H-indol-3-yl)methylene]-7-(piperazin-1-ylmethyl)benzofuran-3(2H)-one dihydrochloride] | –
12 | 29 | O=C1/C(=C/c2c[nH]c3c([N+](=O)[O-])cccc23)Oc2c1ccc(O)c2CN1CCNCC1 [Compound A27, (Z)-6-Hydroxy-2-[(7-nitro-1H-indol-3-yl)methylene]-7-(piperazin-1-ylmethyl)benzofuran-3(2H)-one dihydrochloride] | –
13 | 10 | CNCc1cccc2c(/C=C3\Oc4c(ccc(O)c4CN4CCNCC4)C3=O)c[nH]c12 [Compound A28, (Z)-6-Hydroxy-2-({7-[(methylamino)methyl]-1H-indol-3-yl}methylene)-7-(piperazin-1-ylmethyl)benzofuran-3(2H)-one trihydrochloride] | –
14 | 47 | Cc1ccc(S(=O)(=O)n2cc(/C=C3\Oc4c(ccc(O)c4CN4CCN(C)CC4)C3=O)c3ccccc32)cc1 [Compound A31, (Z)-6-Hydroxy-7-[(4-methylpiperazin-1-yl)methyl]-2-[(1-tosyl-1H-indol-3-yl)methylene]benzofuran-3(2H)-one] | –
15 | 40 | COc1ccc2c(c1CN1CCOCC1)O/C(=C\c1c[nH]c3ccccc13)C2=O [Compound A41, (Z)-2-[(1H-Indol-3-yl)methylene]-6-methoxy-7-(morpholinomethyl)benzofuran-3(2H)-one] | –
16 | 96 | O=C1/C(=C/c2c[nH]c3ncccc23)Oc2c1ccc(O)c2CN1CCNCC1 [Compound A42, (Z)-2-[(1H-Pyrrolo[2,3-b]pyridin-3-yl)methylene]-6-hydroxy-7-(piperazin-1-ylmethyl)benzofuran-3(2H)-one trihydrochloride] | –
17 | 56 | CN1CCN(Cc2c(O)ccc3c2O/C(=C\c2c[nH]c4ncccc24)C3=O)CC1 [Compound A43, (Z)-2-[(1H-Pyrrolo[2,3-b]pyridin-3-yl)methylene]-6-hydroxy-7-[(4-methylpiperazin-1-yl)methyl]benzofuran-3(2H)-one] | –

Row | inhibition at 0.1 µM (Table 1) [%] | Structure (SMILES) | also measured
18 | 99 | O=C1/C(=C/c2c[nH]c3nc(Cl)ccc23)Oc2c1ccc(O)c2CN1CCNCC1 [Compound A46, (Z)-2-[(6-Chloro-1H-pyrrolo[2,3-b]pyridin-3-yl)methylene]-6-hydroxy-7-(piperazin-1-ylmethyl)benzofuran-3(2H)-one trihydrochloride] | –
19 | 98 | O=C1/C(=C/c2c[nH]c3nc(Br)ccc23)Oc2c1ccc(O)c2CN1CCNCC1 [Compound A47, (Z)-2-[(6-Bromo-1H-pyrrolo[2,3-b]pyridin-3-yl)methylene]-6-hydroxy-7-(piperazin-1-ylmethyl)benzofuran-3(2H)-one trihydrochloride] | –
20 | 97 | Cc1ccc2c(/C=C3\Oc4c(ccc(O)c4CN4CCNCC4)C3=O)c[nH]c2n1 [Compound A48, (Z)-6-Hydroxy-2-[(6-methyl-1H-pyrrolo[2,3-b]pyridin-3-yl)methylene]-7-(piperazin-1-ylmethyl)benzofuran-3(2H)-one trihydrochloride] | –
21 | 16 | O=C1/C(=C/c2c[nH]c3nc(-c4ccccc4)ccc23)Oc2c1ccc(O)c2CN1CCNCC1 [Compound A49, (Z)-6-Hydroxy-2-[(6-phenyl-1H-pyrrolo[2,3-b]pyridin-3-yl)methylene]-7-(piperazin-1-ylmethyl)benzofuran-3(2H)-one trihydrochloride] | –
22 | 94 | C#Cc1ccc2c(/C=C3\Oc4c(ccc(O)c4CN4CCNCC4)C3=O)c[nH]c2n1 [Compound A50, (Z)-2-[(6-Ethynyl-1H-pyrrolo[2,3-b]pyridin-3-yl)methylene]-6-hydroxy-7-(piperazin-1-ylmethyl)benzofuran-3(2H)-one trihydrochloride] | –
23 | 94 | Cc1ccc2c(/C=C3\Oc4c(cc(Cl)c(O)c4CN4CCNCC4)C3=O)c[nH]c2n1 [Compound A51, (Z)-5-Chloro-6-hydroxy-2-[(6-methyl-1H-pyrrolo[2,3-b]pyridin-3-yl)methylene]-7-(piperazin-1-ylmethyl)benzofuran-3(2H)-one trihydrochloride] | –
24 | 101 | O=C1/C(=C/c2c[nH]c3ncc(Br)cc23)Oc2c1ccc(O)c2CN1CCNCC1 [Compound A52, (Z)-2-[(5-Bromo-1H-pyrrolo[2,3-b]pyridin-3-yl)methylene]-6-hydroxy-7-(piperazin-1-ylmethyl)benzofuran-3(2H)-one trihydrochloride] | –
25 | 98 | COc1ccc2c(c1CN1CCNCC1)O/C(=C\c1c[nH]c3ncccc13)C2=O [Compound A53, (Z)-2-[(1H-Pyrrolo[2,3-b]pyridin-3-yl)methylene]-6-methoxy-7-(piperazin-1-ylmethyl)benzofuran-3(2H)-one] | –
26 | 72 | COc1ccc2c(c1CN1CCOCC1)O/C(=C\c1c[nH]c3ncccc13)C2=O [Compound A54, (Z)-2-[(1H-Pyrrolo[2,3-b]pyridin-3-yl)methylene]-6-methoxy-7-(morpholinomethyl)benzofuran-3(2H)-one] | –
27 | – | O=C1/C(=C/c2n[nH]c3ccccc23)Oc2c1ccc(O)c2CN1CCNCC1 [Compound B1, (Z)-2-[(1H-Indazol-3-yl)methylene]-6-hydroxy-7-(piperazin-1-ylmethyl)benzofuran-3(2H)-one] | inhibition at 0.1 µM (Table 2): 88%
28 | – | C[C@@H]1CN(Cc2c(O)ccc3c2O/C(=C\c2n[nH]c4ccccc24)C3=O)C[C@H](C)N1 [Compound B2] | Pim-1 kinase inhibitory activity (%) (Table 2): 61%
29 | – | CN1CCN(Cc2c(O)ccc3c2O/C(=C\c2n[nH]c4ccccc24)C3=O)CC1 [Compound B4, (Z)-2-[(1H-Indazol-3-yl)methylene]-6-hydroxy-7-[(4-methylpiperazin-1-yl)methyl]benzofuran-3(2H)-one] | inhibition at 0.1 µM (Table 2): 41%
30 | – | O=C1/C(=C/c2n[nH]c3ccccc23)Oc2c1ccc(O)c2CN1CCOCC1 [Compound B5, (Z)-2-[(1H-Indazol-3-yl)methylene]-6-hydroxy-7-(morpholinomethyl)benzofuran-3(2H)-one] | inhibition at 0.1 µM (Table 2): 22%
31 | – | O=C1CN(Cc2c(O)ccc3c2O/C(=C\c2n[nH]c4ccccc24)C3=O)CCN1 [Compound B6, (Z)-4-({2-[(1H-Indazol-3-yl)methylene]-6-hydroxy-3-oxo-2,3-dihydrobenzofuran-7-yl}methyl)piperazin-2-one] | inhibition at 0.1 µM (Table 2): 49%
32 | – | O=C1/C(=C/c2n[nH]c3ccc(F)cc23)Oc2c1ccc(O)c2CN1CCNCC1 [Compound B8, (Z)-6-Hydroxy-7-(piperazin-1-ylmethyl)-2-[(5-fluoro-1H-indazol-3-yl)methylene]benzofuran-3(2H)-one] | inhibition at 0.1 µM (Table 2): 81%
33 | – | O=C1/C(=C/c2n[nH]c3ccc(Cl)cc23)Oc2c1ccc(O)c2CN1CCNCC1 [Compound B9, (Z)-6-Hydroxy-7-(piperazin-1-ylmethyl)-2-[(5-chloro-1H-indazol-3-yl)methylene]benzofuran-3(2H)-one] | inhibition at 0.1 µM (Table 2): 93%
